Here are results for ten compounds from PubChem BioAssay (NCI).

Among the test systems are HOP-62 NSCLC; U251 CNS; HCT-116 colon; MDA-MB-231 breast; HS 578T breast; SF-539 CNS; A498 renal; MDA-MB-435; SK-OV-3 ovarian; K-562 leukemia; PC-3 prostate; HT29 colon; A549 NSCLC.
Holding throughout (assay): NCI anticancer screen, dose series, 48 h

Values joined by “and” are separate entries in the source; they are usually repeats but may differ in a detail not shown here. Equal values may be shown once.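 Briefly, cells in 96-well plates were exposed to five compound concentrations for 48 h, and endpoints were estimated by linear interpolation. GI50: concentration for 50% inhibition of growth. TGI: concentration producing complete growth inhibition.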 Where only a bound is given, the exact number is not on record here.

Take `CCOC(=O)c1ccc(N=C/C=C(\Nc2ccc(C(=O)OCC)cc2)c2ccc3ccccc3c2)cc1`: the TGI in the assay on HOP-62 NSCLC was 95.8 µM; in the assay on U251 CNS, over 100 µM; in the assay with HCT-116 colon it was over 100 µM; with MDA-MB-231 breast, 80.6 µM; in the assay on HS 578T breast it was 96.3 µM; in the assay with SF-539 CNS it was 39.2 µM. Moreover, the TGI in the assay on A498 renal is over 100 µM; in the assay on MDA-MB-435, 33.3 µM; in the assay on SK-OV-3 ovarian, over 100 µM; in the assay with K-562 leukemia, 56.7 µM; in the assay with PC-3 prostate, over 100 µM; in the assay on HT29 colon, 49 µM. Moreover, the TGI with A549 NSCLC was over 100 µM.
For the compound `CC(C)C[C@H](NC(=O)[C@@H](Cc1cccc2ccccc12)NC(=O)N1CCOCC1)B(O)O`, the TGI in the assay with HOP-62 NSCLC was 33.3 µM; in the assay on U251 CNS, 17.7 µM; in the assay with HCT-116 colon it was 5.94 µM; with MDA-MB-231 breast it was 20.3 µM; with HS 578T breast, over 25.6 µM; in the assay with SF-539 CNS, 4.61 µM. Also, the TGI is 18.1 µM with A498 renal; 3.79 µM in the assay on MDA-MB-435; 40.6 µM with SK-OV-3 ovarian; 46.6 µM in the assay on K-562 leukemia; 24.9 µM in the assay with PC-3 prostate; 8.86 µM in the assay on HT29 colon. In the assay on A549 NSCLC, this compound showed a TGI of 68 µM.
Take `CCN(CC)P1(=S)Oc2ccc3ccccc3c2-c2c(ccc3ccccc23)O1`: the TGI in the assay on HOP-62 NSCLC, in the assay with U251 CNS, in the assay with HCT-116 colon, in the assay on MDA-MB-231 breast, in the assay with HS 578T breast and with SF-539 CNS was over 100 µM throughout. Further, the TGI in the assay with A498 renal, with MDA-MB-435, in the assay with SK-OV-3 ovarian, in the assay with K-562 leukemia, in the assay on PC-3 prostate and with HT29 colon was over 100 µM throughout. The TGI in the assay with A549 NSCLC was over 100 µM.
On to `COc1ccc2cc(C(=O)NCCc3ccccc3)ccc2c1OC`, for which the TGI is 75.3 µM in the assay on HOP-62 NSCLC; over 100 µM in the assay with U251 CNS; over 100 µM in the assay with HCT-116 colon; 87.4 µM with MDA-MB-231 breast; over 100 µM with HS 578T breast; 70.3 µM in the assay on SF-539 CNS. In addition, the TGI in the assay with A498 renal, with MDA-MB-435, with SK-OV-3 ovarian, in the assay on K-562 leukemia, with PC-3 prostate and with HT29 colon was over 100 µM in each case. The TGI with A549 NSCLC was over 100 µM.
Consider `CC(=O)c1nc2ccccc2n1CC(=O)c1ccc([N+](=O)[O-])cc1`, for which the TGI in the assay with HOP-62 NSCLC is 17.6 µM; in the assay with U251 CNS it was 19.9 µM; with HCT-116 colon, 25.1 µM; in the assay on MDA-MB-231 breast it was over 100 µM; with HS 578T breast, 28.9 µM; with SF-539 CNS, over 100 µM. Further, the TGI in the assay with A498 renal was over 100 µM; in the assay on MDA-MB-435, over 100 µM; in the assay on SK-OV-3 ovarian, over 100 µM; in the assay on K-562 leukemia, over 100 µM; with PC-3 prostate, 44.4 µM; in the assay on HT29 colon, 46 µM. This compound returned a TGI in the assay on A549 NSCLC of 37.6 µM.
In the case of `CC(=O)OCC1OC(n2c(-c3ccccc3)c(N=Nc3ccc(Cl)cc3)c(C)c(C#N)c2=S)C(OC(C)=O)C(OC(C)=O)C1OC(C)=O` (configuration not stated), the TGI with HOP-62 NSCLC is 52.9 µM and > 100 µM; in the assay with U251 CNS, 15.6 µM and 74.4 µM; with HCT-116 colon, over 100 µM; in the assay with MDA-MB-231 breast it was over 100 µM; in the assay on HS 578T breast, 94 µM and 96.9 µM; with SF-539 CNS it was 43.7 µM and > 100 µM. The TGI in the assay on A498 renal was 43.5 µM and 70.7 µM; in the assay with MDA-MB-435, 41.1 µM and > 100 µM; in the assay with SK-OV-3 ovarian, > 100 µM and 76.5 µM; with K-562 leukemia, 28.6 µM and > 100 µM; with PC-3 prostate it was 37.4 µM and > 100 µM; in the assay with HT29 colon, 49.1 µM and > 100 µM. The same compound yielded a TGI in the assay with A549 NSCLC of over 100 µM. Also, the GI50 was 3.79 µM and 24 µM in the assay with U251 CNS; 6.61 µM and 30.2 µM in the assay with HCT-116 colon; 20.3 µM and 45.2 µM with MDA-MB-231 breast; 2.78 µM and 19.1 µM in the assay on A498 renal; 8.42 µM and 27.3 µM with SK-OV-3 ovarian; 20.1 µM and 87.7 µM in the assay on HT29 colon. The GI50 in the assay on A549 NSCLC is 6.86 µM and 22.1 µM.
Turning to `Cc1ccc(S(=O)(=O)OC2CN3CCC2CC3)cc1` (configuration not stated), the TGI in the assay on HOP-62 NSCLC, in the assay on U251 CNS, in the assay with HCT-116 colon, in the assay on MDA-MB-231 breast, in the assay with HS 578T breast and in the assay with SF-539 CNS was over 100 µM in each case. The TGI with A498 renal, with MDA-MB-435, with SK-OV-3 ovarian, with K-562 leukemia, in the assay with PC-3 prostate and in the assay on HT29 colon was over 100 µM each time. Further, the TGI with A549 NSCLC is over 100 µM.
Regarding `Cc1ccc(Nc2ncnc3sc(SCc4ccccc4)nc23)cc1`, the TGI with HOP-62 NSCLC, in the assay with U251 CNS, in the assay with HCT-116 colon, with MDA-MB-231 breast, in the assay on HS 578T breast and in the assay with SF-539 CNS was over 100 µM each time. For the same compound, the TGI in the assay on A498 renal, in the assay on MDA-MB-435, with SK-OV-3 ovarian, with K-562 leukemia, in the assay on PC-3 prostate and with HT29 colon was over 100 µM throughout. Besides, the TGI in the assay with A549 NSCLC is over 100 µM.
As to `C=C(C)C1CC2=C(C(=O)OC)C=C(O2)C(C(=C)C)[C@@H]2OC(=O)/C(=C\C1O)[C@H]2N(C)C` (some centres not stated), the TGI in the assay with HOP-62 NSCLC amounted to 34.2 µM; with U251 CNS, 33 µM; in the assay on HCT-116 colon, 27.7 µM; in the assay on MDA-MB-231 breast it was 43.8 µM; in the assay with HS 578T breast, 44.2 µM; in the assay on SF-539 CNS it was 22.9 µM. Also, the TGI in the assay on A498 renal was 31.3 µM; in the assay on MDA-MB-435 it was 25 µM; in the assay on SK-OV-3 ovarian, 64.1 µM; with K-562 leukemia, over 100 µM; in the assay on PC-3 prostate it was 24.5 µM; in the assay with HT29 colon, over 100 µM. The same compound gave a TGI in the assay on A549 NSCLC of 30.8 µM.
Regarding `COC(=O)c1nc2c(C)c(O)c(O)c([C@H](C)CCC=C(C)C)c2o1`, the TGI in the assay on HOP-62 NSCLC is 67.7 µM; with U251 CNS, over 100 µM; with HCT-116 colon, 41.5 µM; in the assay on MDA-MB-231 breast, over 100 µM; with HS 578T breast, 87.4 µM; in the assay on SF-539 CNS it was 35.7 µM. Moreover, the TGI is 39 µM with A498 renal; over 100 µM in the assay with MDA-MB-435; over 100 µM in the assay on SK-OV-3 ovarian; over 100 µM in the assay with K-562 leukemia; 93.5 µM with PC-3 prostate; 37 µM with HT29 colon. The TGI in the assay with A549 NSCLC amounted to 57.1 µM.
